Here are results for 16 molecules from publication PMC3357532, “Intracellular Loop 2 Peptides of the Human 5HT1a Receptor are Differential Activators of Gi” (International Journal of Peptides, 2012).

Assay [1] has as its target T1, H5-HT1aR (Homo sapiens, UniProt P08908).
T1 construct: expressed in transfected cells; host or cells: CHO cells (Chinese hamster ovary), crude membranes
T1 sequence (P08908 1-422): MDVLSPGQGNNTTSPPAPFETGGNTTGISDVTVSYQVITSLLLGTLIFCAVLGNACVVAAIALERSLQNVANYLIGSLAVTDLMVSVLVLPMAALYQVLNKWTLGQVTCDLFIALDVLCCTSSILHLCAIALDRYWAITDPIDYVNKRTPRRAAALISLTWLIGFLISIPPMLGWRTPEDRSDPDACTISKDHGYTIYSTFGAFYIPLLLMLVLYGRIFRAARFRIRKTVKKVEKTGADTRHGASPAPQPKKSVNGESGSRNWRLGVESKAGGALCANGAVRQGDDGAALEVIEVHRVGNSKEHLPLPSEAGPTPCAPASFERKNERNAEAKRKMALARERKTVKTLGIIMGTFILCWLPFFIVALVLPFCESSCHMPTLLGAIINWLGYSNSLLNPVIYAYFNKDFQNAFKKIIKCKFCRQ
The assay can be described thus: Inhibition of agonist [3H]8-OH-DPAT binding (measure of receptor-G-protein coupling). The procedure:
Cells were trypsinized and centrifuged at low speed in ice-cold medium. The pellet was resuspended in ice-cold Earle's Balanced Salt Solution followed by centrifugation. Cells were resuspended in 10 mL of ice-cold binding buffer (50 mM Tris, 4 mM CaCl2, 10 μM pargyline, and pH 7.4), homogenized with Teflon-glass, and centrifuged for 450,000 g-min. at 4°C. For a crude membrane preparation, the pellet was resuspended in 30 mL of ice-cold binding buffer, homogenized on Teflon-glass and then by Polytron (setting 4) for 5 seconds, and stored on ice and assayed within the next 1.5 hours.
Binding of the agonist [3H]8-OH-DPAT ([3H]8-hydroxy-2-(di-n-propylamino)tetralin) to H5-HT1aR followed well-characterized protocols. Radioligands were purchased from New England Nuclear (NEN), Boston, MA, and 1 mL reaction mixtures, in triplicate, were incubated for 30 min. in a 30°C shaker. The 1 mL mixture was 700 μL of receptor preparation; 100 μL of binding buffer (for total binding) or 10 μM 5-HT (for nonspecific binding), 100 μL of the tritiated agent (concentration of 0.5 nM [3H] 8-OH-DPAT), and 100 μL of peptide or binding buffer in the case of controls.
Reactions were stopped by addition of 4 mL of ice-cold 50 mM Tris buffer, pH 7.4, and vacuum filtration on glass fiber filters (Whatman GF/B). Filters were rinsed twice in 5 mL of ice-cold Tris buffer, dried, and counted in 5 mL of Ecoscint (National Diagnostics) liquid scintillation fluid in a Beckman LS 6500. Homogenates were assayed for protein to maintain a nominal value of 50 μg protein per filter. All tubes were run in triplicate.

For assay [2], the target named is T1, H5-HT1aR. Particulars: CHO H5-HT1aR membranes; ref Thiagaraj et al., 2007 [53]; read-out: Conc. (uM) at which specific high affinity [3H]8-OH-DPAT binding is decreased by 50% (IC50); cited from earlier work. From the text: (§1) Table 2 ic2 Peptide mimic effect on [3H]8-OH-DPAT binding. All binding inhibition values are percent of control agonist (ag.) bound. The upper portion of the table is for peptides nearer the C-terminus, including P11 from Thiagaraj et al., 2007 [53]. These peptides decreased the specific high affinity binding of 5HT1aR agonist [^3H]-8-OH-DPAT by 50% at the given concentration. The lower portion | column: Conc. (uM); % cont. ag, bound, (SEM) || Table 3 ic3 Peptide mimic coupling and signal transduction data. Summary of data generated for all ic3 experiments with P12 and P13. P1 is included as a reference, from Hayataka et al., 1998 [49]. Nominal values for control agonist binding were 400 fmoles/mg protein. | column: Agonist (%) inhibition

Assay [3] relates to CHO cells expressing the human 5HT1aR. The settings on record: peptide 30 uM (Figure 3), 30 uM FSK, IBMX; ref Thiagaraj et al., 2007 [53]; SEM; cited from earlier work.
Description: as §1, with “[cAMP]” for “Conc. (uM); % cont. ag, bound,”, “% Inhibition of FSK-stimulated cAMP” for “Agonist (%) inhibition”

In assay [4] the test system is Gi in H5-HT1aR membranes from transfected CHO cells. Particulars: peptide 30 uM (Figure 2); ref Thiagaraj et al., 2007 [53]; SEM; cited from earlier work.
Description: as §1, with “GTP Incorp.” for “Conc. (uM); % cont. ag, bound,”, “[35S]-γ-S-GTP incorporation% above conro” for “Agonist (%) inhibition”

The test system of assay [5] is CHO cells expressing the human 5HT1aR. Description: Forskolin-stimulated cAMP production (EIA). In kind it is cell-based. The settings on record: for [cAMP] (SEM), relative to FSK-stimulated control: 30 uM FSK, 100 uM IBMX, 20 min 37°C, control = 100; for FSK stimulated cAMP (%): Figure 5, IBMX, FSK control = 100. How it is done: CHO cells were cultured to confluency in 12- or 24-well plates. Medium was aspirated, and the cells were rinsed twice in warm, serum-free F-12 medium. Cells were incubated for 20 min. at 37°C in 0.5 mls of serum-free F-12 medium containing 100 uM isobutylmethylxanthine (IBMX) and the following substances (final concs.) alone or in combination (see Figures 3 and 5): 30 μM forskolin (FSK; for all treatments); 1 μM 5-HT; peptide concentrations as noted in figure legends. Reactions were stopped by aspiration of medium and addition of 0.5 mL of 100 mM HCl. After 10 min., well contents were removed and centrifuged at 4000 rpm. Supernatants were diluted in 100 mM HCl, and cAMP was quantified directly in a microplate format by enzyme immunoassay (EIA) with a kit from Assay Designs (Ann Arbor). Triplicate-independent samples were assayed.
For orientation: Cyclic AMP is a second messenger, typically raised through Gs and lowered through Gi signalling.

For assay [6], the system named is Gi in H5-HT1aR membranes from transfected CHO cells. The assay can be described thus: [35S]GTPγS incorporation into Gi. In kind it is biochemical, human. Particulars: for GTP Incorp. (SEM), γ-[35S]-GTP into Gi, percent of control: peptide 30 uM (Figure 2), basal control = 100, 30 min 30°C. The procedure:
H5-HT1aR membranes from transfected CHO cells were incubated with 5-HT (0.1 μM) and/or peptide concentrations as noted in figure legends (see Figures 2 and 4) and the following incubation mixture: 20 mM HEPES buffer, pH 7.4, 5 mM MgCl2, 1 mM EDTA, 1 mM DTT, 100 mM NaCl, 100 uM GDP, 10 μM pargyline, 0.2 mM ascorbate, and 0.1 nM [35S]GTPγS [53, 58]. Mixtures were incubated for 30 min. at 30°C, and were terminated by dilution in cold buffer. The mixture was filtered on GF/C filters, rinsed twice in buffer, dried and counted by liquid scintillation. All values reported in are for specific binding (total nonspecific) of triplicates. Nonspecific binding was determined in the presence of cold γ-S-GTP (10 uM). Negative control is the above mixture minus test drug or 5HT. Positive control contains 5HT.

Assay [7] deals with Gi (G protein coupled to the human 5HT1a receptor in CHO cells) (Chinese hamster (endogenous in CHO)).
Assay [8] shares this target. This is another data set of the same source.
The mark [9] stands for this setting: CHO H5-HT1aR membranes, 0.5 nM [3H]8-OH-DPAT, 30 min 30°C, shallow curves, read-out: Conc. (uM) at which specific high affinity [3H]8-OH-DPAT binding is decreased by 50% (IC50).

Like-named read-outs stand apart in the source and are kept apart here. Where no end group is shown, it is not given here.

On to WAITDPIDYV [Peptide P23], for which the IC50 at H5-HT1aR [1] (setting [9]) was found to be 30 µM.

In the case of RYWAITDPID [Peptide P22], the IC50 at H5-HT1aR [1] (setting [9]) stood at 16 µM.

As to LDRYWAITDP [Peptide P21], at H5-HT1aR [1] (setting [9]), the IC50 turned out to be 15 µM.

For “IALDRYWAITD [Peptide P11, ic2 N-terminal (TM3/ic2) peptide mimic of H5HT1aR from a previous study, Thiagaraj et al., 2007]”, the IC50 in the assay with H5-HT1aR [2] was 7 µM. Further, the “[cAMP] (SEM), relative to FSK-stimulated control” value in assay [3] was 87 (8) %. Moreover, the “GTP Incorp. (SEM), γ-[35S]-GTP into Gi, percent of control” value (“GTP Incorp. (SEM) … percent of control” for short) in assay [4] is reported as 100 (3) %.

Consider `NCCc1c[nH]c2ccc(O)cc12` [Peptide 5HT, 5-hydroxytryptamine, reference compound], for which the “[cAMP] (SEM), relative to FSK-stimulated control” value in assay [5] (1 uM 5-HT) is reported as 21 (4) %. In addition, the “FSK stimulated cAMP (%)” value in assay [5] (5HT alone (1 uM per method)) was found to be 24 ± 1%.

Consider ITDPIDYVNK [Peptide P24], for which the “[cAMP] (SEM), relative to FSK-stimulated control” value in assay [5] (peptide 30 uM (Figure 3)) is 45 (7) %. For the same molecule, in assay [6], the “GTP Incorp. (SEM) … percent of control” value was 146 (17) %.

Regarding “DPIDYVNKRT [Peptide P25, ic2 loop peptide mimic of H5HT1aR]”, the “[cAMP] (SEM), relative to FSK-stimulated control” value in assay [5] (peptide 30 uM (Figure 3)) was 64 (3) %. In addition, in assay [6], the “GTP Incorp. (SEM) … percent of control” value was 126 (10) %.

In the case of “IDYVNKRTPR [Peptide P26, ic2 loop peptide mimic of H5HT1aR]”, the “[cAMP] (SEM), relative to FSK-stimulated control” value in assay [5] (peptide 30 uM (Figure 3)) was 100 (5) %. For the same molecule, the “GTP Incorp. (SEM) … percent of control” value in assay [6] is reported as 111 (9) %.

For the molecule “YVNKRTPRPR [Peptide P27, ic2 loop peptide mimic of H5HT1aR, C-terminal end]”, the “[cAMP] (SEM), relative to FSK-stimulated control” value in assay [5] (peptide 30 uM (Figure 3)) was 132 (6) %. Moreover, the “GTP Incorp. (SEM) … percent of control” value in assay [6] is listed as 130 (7) %.

As to VKKVEKTGAD [Peptide P13], the IC50 on H5-HT1aR [1] ([3H]8-OH-DPAT, if 50% is listed, the concentration is the IC50, read-out: Agonist (%) inhibition: concentration giving 50% (IC50)) is 15 µM. Moreover, on H5-HT1aR [1] (peptide 15 uM), the inhibition (usually the drop in the measured response relative to a control, in per cent) is 50%.

Regarding “KTVKKVEKTG [Peptide P12, ic3 peptide mimic of H5HT1aR]”, the inhibition at H5-HT1aR [1] (peptide 30 uM, maximum inhibition possible with the highest soluble concentration) was 28%; in assay [5] (peptide 30 uM, read-out: % Inhibition of FSK-stimulated cAMP), 0%. The “Change in intracellular cAMP concentration (in words)” value in assay [5] (FSK-stimulated, peptide 30 uM (Figure 5)) is “not altered”. The “FSK stimulated cAMP (%)” value in assay [5] (peptide alone 30 uM) is listed as 100 ± 6%. Besides, the “[35S]-γ-S-GTP incorporation% above conro” value in assay [6] (peptide 30 uM) stood at 24%.

As to KTVKKVEKTG [P12, ic3 loop peptide mimic of the human 5HT1a receptor], in assay [7], the % inhibition of FSK-stimulated cAMP at 30 uM peptide, CHO cells expressing H5HT1aR is -0 % inhibition; the [35S]-γ-S-GTP incorporation into Gi, % above control, at 30 uM peptide, CHO H5HT1aR membranes (% above control) worked out at 24; the agonist ([3H]8-OH-DPAT) % inhibition at 30 uM peptide, H5-HT1aR in CHO membranes (maximum inhibition possible with the highest soluble concentration; uncoupling of receptor from G protein) was found to be 28 % inhibition.

As to RYWAITDPID [P22, ic2 loop peptide mimic of the human 5HT1a receptor], the IC50 of agonist inhibition: peptide concentration at which specific [3H]8-OH-DPAT binding to H5-HT1aR in CHO membranes falls to about 50% of control (uncoupling of receptor from G protein) in assay [8] worked out at 16 µM.

For VKKVEKTGAD [P13, ic3 loop peptide mimic of the human 5HT1a receptor], in assay [7], the % inhibition of FSK-stimulated cAMP at 30 uM peptide, CHO cells expressing H5HT1aR (negative: cAMP increased) was -24 % inhibition; the IC50 of agonist inhibition: peptide concentration giving 50% inhibition of [3H]8-OH-DPAT binding to H5-HT1aR in CHO membranes (uncoupling of receptor from G protein) worked out at 15 µM; the [35S]-γ-S-GTP incorporation into Gi, % above control, at 30 uM peptide, CHO H5HT1aR membranes (% above control) was found to be 12.

Consider LDRYWAITDP [P21, ic2 loop peptide mimic of the human 5HT1a receptor], for which the IC50 of agonist inhibition: peptide concentration at which specific [3H]8-OH-DPAT binding to H5-HT1aR in CHO membranes falls to about 50% of control (uncoupling of receptor from G protein) in assay [8] stood at 15 µM.

In assay [8], WAITDPIDYV [P23, ic2 loop peptide mimic of the human 5HT1a receptor] yielded an IC50 of agonist inhibition: peptide concentration at which specific [3H]8-OH-DPAT binding to H5-HT1aR in CHO membranes falls to about 50% of control (uncoupling of receptor from G protein) of 30 µM.
